One may read the IC50 as the midpoint of a concentration-inhibition curve. A lower IC50 goes with greater potency in that assay.

The results in this text go back to patent publication US20190284293A1, “COMBINATION THERAPY WITH ANTI-CD73 ANTIBODIES” (BRISTOL-MYERS SQUIBB COMPANY, priority 2016, published 2019).

Bounds are passed on as bounds.

Experiment [1] has as its target T1, endogenous CD73 activity in Calu-6 cells (Homo sapiens, UniProt P21589).
T1 construct: Calu6 (CD73 endogenous expressors; human pulmonary adenocarcinoma cell line); endogenous in cells; host or cells: Calu6 (Calu-6) human pulmonary adenocarcinoma cells
T1 sequence (P21589 27-549): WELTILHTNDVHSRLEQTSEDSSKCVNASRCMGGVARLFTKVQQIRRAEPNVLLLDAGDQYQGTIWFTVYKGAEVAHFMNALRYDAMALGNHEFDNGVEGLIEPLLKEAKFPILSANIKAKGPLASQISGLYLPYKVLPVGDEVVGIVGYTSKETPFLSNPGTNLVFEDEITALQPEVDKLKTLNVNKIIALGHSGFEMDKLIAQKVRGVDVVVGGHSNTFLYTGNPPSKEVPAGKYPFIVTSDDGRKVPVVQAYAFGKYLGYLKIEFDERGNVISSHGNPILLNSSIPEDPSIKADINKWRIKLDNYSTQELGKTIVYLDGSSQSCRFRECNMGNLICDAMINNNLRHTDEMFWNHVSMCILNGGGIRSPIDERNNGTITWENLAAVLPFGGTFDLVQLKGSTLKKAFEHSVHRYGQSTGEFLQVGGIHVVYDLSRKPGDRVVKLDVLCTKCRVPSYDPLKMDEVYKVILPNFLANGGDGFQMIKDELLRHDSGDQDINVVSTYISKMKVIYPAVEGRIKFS
The experiment can be described thus: Dual cell line HTRF cAMP assay (Calu-6 and HEK293/A2AR cells). The class given is cell-based. For orientation: Time-resolved FRET reads energy transfer from a long-lived donor to a nearby acceptor.
Method: CD73 antibodies were serial diluted with PBS buffer containing 0.2% BSA, and plated 5 μl/well in 384 well white bottom proxiplate (PerkinElmer, Waltham, Mass.). Calu-6 cells were harvested and resuspend in PBS containing 0.2% BSA, then 5 μl of cells (300 cells/well) were added to the plate. The cells were incubated with antibodies for 10 minutes at 37° C. […] The cells were further incubated with AMP for 30 minutes at 37° C. During this time, HEK293/A2AR cells were harvested and diluted to 0.4 million/ml in PBS containing 0.2% BSA. They were added into the assay plate at 5 μl/well and continued to incubate at 37° C. for 1 hr. HRTF assays were performed using the homogenous time-resolved fluorescence (HTRE) HiRange cAMP detection kit (Cisbio, Bedford, Mass.) by adding 10 cAMP-conjugated d2 and 10 europium conjugated anti-cAMP antibody in lysis buffer according to the manufacturer's instructions. Plates were incubated at room temperature for 60 minutes and Fluorescence Resonance Energy Transfer (FRET) signals (665 and 615 nM) were read using an EnVision plate reader (PerkinElmer, Waltham, Mass.). The FRET signal was calculated as the ratio of signal from the 665 nm (acceptor) and 615 nm (donor) channels and multiplied by 10,000. IC50 and Ymax were measured. […] All calculations were determined as a percentage of inhibition compared to this control, which was set to 100%.

The next experiment deals with human FcRn (Homo sapiens, UniProt P55899). Nature of the experiment: SPR binding to human FcRn. The conditions noted are these: strong at pH6, weak binding with fast dissociation at pH 7.4. For orientation: In SPR one partner is held on a chip, and binding of the other changes the refractive index at the surface.
In a further experiment the target is all other FcγRs. Nature of the experiment: SPR binding of constructs to human FcγRs. The conditions noted are these: read-out: binding affinity to all other FcγRs. As for the experimental part: Binding of the constructs to human FcγRs was measured via SPR. hCD64 and hCD32a-H131 binding data for IgG1.1 and IgG2 molecules were consistent with expected values for the different Fcs. IgG1.1f is the most inert Fc.

A further experiment addresses cyno FcγRs. The experiment can be described thus: SPR binding of constructs to cyno FcγRs. The conditions noted are these: read-out: binding affinity to cyno FcγRs.

human FcRn, sequence (P55899 24-297 limits assumed): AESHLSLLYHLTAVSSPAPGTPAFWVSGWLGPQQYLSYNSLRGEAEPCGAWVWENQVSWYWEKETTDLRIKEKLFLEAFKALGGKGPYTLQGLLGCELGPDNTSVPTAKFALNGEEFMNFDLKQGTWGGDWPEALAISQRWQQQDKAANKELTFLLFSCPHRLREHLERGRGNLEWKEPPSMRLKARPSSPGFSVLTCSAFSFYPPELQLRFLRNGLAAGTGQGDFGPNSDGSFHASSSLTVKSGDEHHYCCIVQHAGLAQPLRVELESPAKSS
human FcRn, sequence (P61769 21-119 partner): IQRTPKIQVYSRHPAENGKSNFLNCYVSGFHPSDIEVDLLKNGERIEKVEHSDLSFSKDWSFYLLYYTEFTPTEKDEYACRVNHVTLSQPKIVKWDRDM

With `Nc1ncnc2c1ncn2[C@@H]1O[C@H](COP(=O)(O)CP(=O)(O)O)[C@@H](O)[C@H]1O` [APCP], the IC50 in experiment [1] (cAMP assay) was determined as 0.00129 µM. In experiment [1] (percentage of inhibition compared to 100 nM 11F11 set to 100%), this compound showed a Ymax of 97.
For the compound “IgG2-C219S-G1.1f: effectorless IgG1/IgG2 hybrid constant region: CH1 and hinge from IgG2 (C219S), CH2 and CH3 of IgG1 (A330S/P331S); SEQ ID NO:169”, in the experiment with human FcRn, the “binding to human FcRn” value is “pH-dependent binding”. Also, the Kd on all other FcγRs was below 5 µM; on cyno FcγRs it was above 5 µM.
